The results in this text go back to ChEMBL document CHEMBL5104103 (J Med Chem, 2022).

A short description of data set [1]: Toxicity in female Beagle dog assessed as weight loss up to 400 mg/kg/day qd for 12 weeks. The class given is organism-based, Canis lupus familiaris. The settings on record: in vivo, 2016 h.
The target of data set [2] is T1, Tyrosine-protein kinase ITK/TSK (Homo sapiens) (UniProt Q08881).
T1 sequence (whole entry): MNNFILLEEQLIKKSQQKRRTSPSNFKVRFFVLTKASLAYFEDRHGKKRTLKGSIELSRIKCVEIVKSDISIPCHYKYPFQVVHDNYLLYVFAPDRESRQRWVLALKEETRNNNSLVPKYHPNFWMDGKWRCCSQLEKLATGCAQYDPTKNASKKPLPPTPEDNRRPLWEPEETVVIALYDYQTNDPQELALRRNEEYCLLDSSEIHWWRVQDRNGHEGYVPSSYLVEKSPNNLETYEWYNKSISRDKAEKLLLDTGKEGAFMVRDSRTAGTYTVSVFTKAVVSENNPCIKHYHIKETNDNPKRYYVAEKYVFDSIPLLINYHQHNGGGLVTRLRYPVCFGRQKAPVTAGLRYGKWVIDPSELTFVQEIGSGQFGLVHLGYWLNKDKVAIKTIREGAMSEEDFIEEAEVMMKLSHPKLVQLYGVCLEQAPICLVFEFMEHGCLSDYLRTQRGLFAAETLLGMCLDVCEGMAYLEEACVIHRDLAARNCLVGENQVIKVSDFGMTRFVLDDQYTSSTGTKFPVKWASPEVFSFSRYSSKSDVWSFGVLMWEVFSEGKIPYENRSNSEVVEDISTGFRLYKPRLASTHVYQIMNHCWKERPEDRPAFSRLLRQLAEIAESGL
As to the kind of experiment: Displacement of competitive tracer from ITK (unknown origin) assessed as target occupancy at […] preincubated for 15 mins measured for 24 hrs relative to control. The settings on record: dose 1.5 µM.

Data set [3] in a line: Toxicity in female Beagle dog assessed as reduction in activity up to 400 mg/kg/day qd for 12 weeks. The format is organism-based, Canis lupus familiaris. The following applies: in vivo, 2016 h.
The target of data set [4] is Sodium-dependent dopamine transporter (Homo sapiens) (UniProt Q01959). As to the kind of experiment: Displacement of [3H]BTCP from recombinant human dopamine transporter DAT at 10 uM incubated for 120 mins by radiometric scintillation assay relative to control. (In general: Displacement assays read how much labelled ligand stays bound in the presence of the test substance.)

The target of data set [5] is T2, Tyrosine-protein kinase TXK (Homo sapiens) (UniProt P42681).
T2 sequence (whole entry): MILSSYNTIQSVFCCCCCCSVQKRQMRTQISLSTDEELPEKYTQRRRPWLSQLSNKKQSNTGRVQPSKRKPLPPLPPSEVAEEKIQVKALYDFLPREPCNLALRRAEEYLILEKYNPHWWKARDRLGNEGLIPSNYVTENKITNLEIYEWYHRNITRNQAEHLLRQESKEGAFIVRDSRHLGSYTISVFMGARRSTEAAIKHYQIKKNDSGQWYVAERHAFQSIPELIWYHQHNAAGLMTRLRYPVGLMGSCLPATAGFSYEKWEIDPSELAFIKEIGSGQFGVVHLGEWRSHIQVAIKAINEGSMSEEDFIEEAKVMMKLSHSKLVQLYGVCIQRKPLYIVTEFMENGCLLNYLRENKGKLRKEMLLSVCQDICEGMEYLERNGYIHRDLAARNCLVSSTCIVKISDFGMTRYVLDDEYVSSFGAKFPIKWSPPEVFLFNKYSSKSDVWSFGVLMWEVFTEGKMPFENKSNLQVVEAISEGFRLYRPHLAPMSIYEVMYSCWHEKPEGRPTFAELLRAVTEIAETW
Put plainly: Displacement of competitive tracer from RLK (unknown origin) assessed as target occupancy at […] preincubated for 15 mins measured for 24 hrs relative to control. The following applies: dose 1.5 µM.

A short description of data set [6]: Drug concentration in plasma of collagen-induced arthritis Lewis rat model 30 mg/kg/day, po measured after 6 hrs post-collection of plasma. The class given is ADME, organism-based.
Another data set has as its system Rattus norvegicus. As to the kind of experiment: Antiarthritic activity in collagen-induced arthritis Lewis rat model assessed as inhibition of ankle diameter administered orally daily for 10 days. The class given is functional, organism-based. The following applies: dose 3-30 mg/kg/day, route po, time 10.0 day, DDE = dose-dependent effect.
The target of data set [7] is T2, Tyrosine-protein kinase TXK (Homo sapiens). As to the kind of experiment: Displacement of competitive tracer from RLK (unknown origin) assessed as target occupancy at […] preincubated for 15 mins measured for 6 hrs relative to control. The following applies: dose 1.5 µM.
Data set [8] deals with Adenosine receptor A3 (Homo sapiens) (UniProt P0DMS8). Put plainly: Displacement of [125I]AB-MECA from recombinant human Adenosine receptor A3 at 10 uM incubated for 120 mins by radiometric scintillation assay relative to control.
Data set [9] can be described thus: Drug concentration in plasma of collagen-induced arthritis Lewis rat model 10 mg/kg/day, po measured after 6 hrs post-collection of plasma. The class given is ADME, organism-based.
The target in data set [10] is T3, Tyrosine-protein kinase Blk (Homo sapiens, UniProt P51451). As to the kind of experiment: Displacement of competitive tracer from BLK (unknown origin) assessed as target occupancy at […] preincubated for 15 mins measured for 24 hrs relative to control. The settings on record: dose 1.5 µM.
Data set [11] is described as follows: Toxicity in female Beagle dog assessed as NOAEL. The arrangement: species or system Canis lupus familiaris. The following applies: in vivo.
Data set [12] addresses T3, Tyrosine-protein kinase Blk. As to the kind of experiment: Displacement of competitive tracer from BLK (unknown origin) assessed as target occupancy at […] preincubated for 15 mins measured for 6 hrs relative to control. The settings on record: dose 1.5 µM.
Data set [13] has as its target T4, Tyrosine-protein kinase Tec (Homo sapiens) (UniProt P42680).
T4 sequence (whole entry): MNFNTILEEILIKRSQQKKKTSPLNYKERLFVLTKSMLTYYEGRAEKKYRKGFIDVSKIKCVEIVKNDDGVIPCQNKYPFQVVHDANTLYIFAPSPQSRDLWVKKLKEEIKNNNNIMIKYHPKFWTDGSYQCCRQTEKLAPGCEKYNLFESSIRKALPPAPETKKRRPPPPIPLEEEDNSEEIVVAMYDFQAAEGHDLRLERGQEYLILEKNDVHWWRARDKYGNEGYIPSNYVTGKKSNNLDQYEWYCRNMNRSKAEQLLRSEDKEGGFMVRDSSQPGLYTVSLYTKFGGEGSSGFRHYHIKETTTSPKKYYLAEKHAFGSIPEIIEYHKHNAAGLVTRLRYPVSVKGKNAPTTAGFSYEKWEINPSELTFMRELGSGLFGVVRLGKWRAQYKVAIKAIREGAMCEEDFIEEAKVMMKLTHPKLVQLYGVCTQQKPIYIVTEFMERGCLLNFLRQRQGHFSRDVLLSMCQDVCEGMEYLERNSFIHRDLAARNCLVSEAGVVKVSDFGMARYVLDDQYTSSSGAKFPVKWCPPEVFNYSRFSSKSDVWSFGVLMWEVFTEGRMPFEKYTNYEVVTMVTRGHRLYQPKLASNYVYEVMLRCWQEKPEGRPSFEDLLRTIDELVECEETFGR
Put plainly: Displacement of competitive tracer from TEC (unknown origin) assessed as target occupancy at […] preincubated for 15 mins measured for 24 hrs relative to control. The settings on record: dose 1.5 µM.

The nature of data set [14]: Drug concentration in plasma of collagen-induced arthritis Lewis rat model 10 mg/kg/day, po measured after 12 hrs post-collection of plasma. The format is ADME, organism-based.
The nature of data set [15]: Inhibition of EGF-stimulated AP-1 activation in human ME-180 cells by EGFR-based reporter assay. The format is cell-based. (A reporter such as luciferase makes a cellular process visible.)
The target of data set [16] is T1, Tyrosine-protein kinase ITK/TSK (Homo sapiens). Put plainly: Displacement of competitive tracer from ITK (unknown origin) assessed as target occupancy at […] preincubated for 15 mins measured for 1 hr relative to control. The settings on record: dose 1.5 µM.
Data set [17] can be described thus: Toxicity in male Beagle dog assessed as NOAEL. The settings on record: in vivo. The arrangement: species or system Canis lupus familiaris.
The target in data set [18] is T4, Tyrosine-protein kinase Tec (Homo sapiens). Put plainly: Displacement of competitive tracer from TEC (unknown origin) assessed as target occupancy at […] preincubated for 15 mins measured for 6 hrs relative to control. The following applies: dose 1.5 µM.

T3 sequence (P51451 2-505 limits assumed): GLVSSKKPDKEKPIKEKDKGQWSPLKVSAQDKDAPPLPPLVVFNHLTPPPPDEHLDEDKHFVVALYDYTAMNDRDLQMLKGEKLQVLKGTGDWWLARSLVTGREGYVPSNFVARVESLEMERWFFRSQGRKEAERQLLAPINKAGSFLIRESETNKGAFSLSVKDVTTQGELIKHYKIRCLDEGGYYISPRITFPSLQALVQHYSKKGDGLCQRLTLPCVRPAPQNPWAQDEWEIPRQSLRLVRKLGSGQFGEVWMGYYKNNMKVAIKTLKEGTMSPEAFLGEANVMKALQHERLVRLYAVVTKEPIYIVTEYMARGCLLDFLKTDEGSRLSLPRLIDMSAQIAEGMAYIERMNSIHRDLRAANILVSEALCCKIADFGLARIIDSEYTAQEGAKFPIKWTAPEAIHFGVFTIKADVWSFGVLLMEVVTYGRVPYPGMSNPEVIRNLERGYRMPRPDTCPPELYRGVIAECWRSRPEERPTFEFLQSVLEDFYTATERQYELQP
Chain of Sodium-dependent dopamine transporter (Homo sapiens) (Q01959 whole entry): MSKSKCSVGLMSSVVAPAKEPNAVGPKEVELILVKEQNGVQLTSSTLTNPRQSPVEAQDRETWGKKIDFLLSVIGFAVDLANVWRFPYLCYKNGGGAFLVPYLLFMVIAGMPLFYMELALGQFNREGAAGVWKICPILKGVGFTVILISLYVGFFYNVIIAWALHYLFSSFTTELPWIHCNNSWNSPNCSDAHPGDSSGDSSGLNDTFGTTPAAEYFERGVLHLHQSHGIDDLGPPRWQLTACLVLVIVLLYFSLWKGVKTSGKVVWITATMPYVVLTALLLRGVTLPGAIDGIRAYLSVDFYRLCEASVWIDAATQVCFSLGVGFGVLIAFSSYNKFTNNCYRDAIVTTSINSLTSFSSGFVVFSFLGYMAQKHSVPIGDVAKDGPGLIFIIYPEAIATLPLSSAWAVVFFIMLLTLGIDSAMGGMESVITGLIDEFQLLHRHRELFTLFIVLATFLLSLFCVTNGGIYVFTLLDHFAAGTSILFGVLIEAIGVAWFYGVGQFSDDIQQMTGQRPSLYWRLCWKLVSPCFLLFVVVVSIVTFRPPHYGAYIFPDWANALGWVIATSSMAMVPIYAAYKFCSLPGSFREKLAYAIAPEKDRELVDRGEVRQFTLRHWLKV
Chain of Adenosine receptor A3 (Homo sapiens) (P0DMS8 whole entry): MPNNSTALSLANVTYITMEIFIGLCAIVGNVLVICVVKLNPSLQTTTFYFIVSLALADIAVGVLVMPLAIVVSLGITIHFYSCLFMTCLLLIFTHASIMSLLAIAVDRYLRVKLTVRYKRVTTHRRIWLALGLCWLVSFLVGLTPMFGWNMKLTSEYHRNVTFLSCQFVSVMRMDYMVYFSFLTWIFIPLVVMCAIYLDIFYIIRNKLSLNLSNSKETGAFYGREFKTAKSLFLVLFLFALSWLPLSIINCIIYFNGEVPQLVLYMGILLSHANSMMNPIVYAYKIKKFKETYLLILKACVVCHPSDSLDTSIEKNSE

Take `CC(C)(C)/C=C(\C#N)C(=O)N1CCC[C@@H](n2nc(-c3ccc(Oc4ccccc4)cc3F)c3c(N)ncnc32)C1` [ATUZABRUTINIB]: the Activity entry in [1] is “Toxic”; in [2], -7%; in [3], “Toxic”; in data set [5] it was 85%; in the data set on Rattus norvegicus it was “Dde”; in data set [7], 86%. Moreover, the Activity was determined as 1% in data set [10]; 44% in data set [12]; 76% in [13]; 82% in data set [16]; 80% in [18]. The inhibition in [4] and in data set [8] was greater than 50% throughout. Also, the figures for the concentration at 6 h in data set [6] and in [9] were 111 ng/mL and 40.2 ng/mL, respectively. The results for the NOAEL in [11] and in data set [17] were 120 mg/kg and 400 mg/kg, respectively. In addition, the concentration at 12 h in [14] was 10 ng/mL. Also, in [15], the IC50 (in general, the concentration at which inhibition is half-maximal) is greater than 5 µM.
